Test results as given in US20080033029A1, “Treating Digestive Tract Conditions” (MAYO FOUNDATION FOR MEDICAL EDUCATION AND RESEARCH, priority 2004, published 2008).

Key:
[1] = test system: ICC (interstitial cells of Cajal); assay: ICC culture: number of ICC with or without 5HT; format: cell-based, mouse; settings: 5HT 1 μM added every 12 hours for 24 hours; ICC from 6 day old Balb/C mice; c-kit antibody; untreated 8±0.5; P<0.0004; FIG. 1
Description: (§1) Blinded parallel cultures were established (n=2, 6 day old Balb/C mice yielding 6 coverslips). […] ICC were identified using an antibody to c-kit and counted. Mast cells, which were identified by their characteristic size and round shape, were not included in the analysis.

[2] = test system: ICC (interstitial cells of Cajal); assay: Organotypic culture of adult mouse small intestine explants: ICC number; format: cell-based; settings: 5HT 1 μM twice daily; explants from 6 month old mice; fixed at day 8; c-Kit staining, confocal 3D
Description: Briefly, one cm segments of mouse small intestine were cut, pinned flat mucosa side up, stripped of mucosa and submucosa layers, and placed into fresh, sterile-filtered Kreb's solution with 3 mM antibiotic. Krebs was removed, and DMEM (Dulbecco's Modified Eagle's Media) with 10% FBS (Fetal Bovine Serum) and 1% antibiotic/antimycotic was added to the culture. […] In the control explant, medium was added without 5HT. The tissue was fixed at day 8 and stained using an antibody to c-Kit. […]

[3] = test system: ICC (interstitial cells of Cajal); 5HT2B receptor; assay: ICC culture: effect of 5HT2B receptor antagonist on the 5HT-induced increase in ICC number
Description: as §1

NCCc1c[nH]c2ccc(O)cc12 [5HT, Serotonin]
number of ICC per HPF [1]: 14±0.4 ICC per HPF | number of ICC in explant versus control explant [2]: greater number of ICC

Cc1cc(NC(=O)Nc2ccc3c(ccn3C)c2)sn1 [SB204741]
number of ICC per HPF [3]: 9±0.2 ICC per HPF
